The record followed here is ChEMBL document CHEMBL6120971 (J Med Chem, 2024).

Molecules are shown by their SMILES. Calls of active or inactive are those of the source. The calls are words filed in the database; no cut-off is given here.

A short description of data set [1]: Toxicity in BALB/c nude mouse xenografted with human MKN-45 cells assessed as effect on lung morphology at 10 mg/kg, po administered once daily for 21 days by H and E staining based analysis. The data set is classed as organism-based. Particulars: in vivo, 504 h, time 21 day. A general note: A xenograft is tissue or cells of one species grown in another, often human tumour cells in immunodeficient mice.

A short description of data set [2]: Half-life in Wistar rat at 20 mg/kg, po measured after 24 hrs by UPLC-MS/MS analysis. As to conditions: in vivo. In kind it is ADME, organism-based.
The nature of data set [3]: Toxicity in BALB/c nude mouse xenografted with human MKN-45 cells assessed as effect on spleen morphology at 10 mg/kg, po administered once daily for 21 days by H and E staining based analysis. In kind it is organism-based. Particulars: in vivo, 504 h, time 21 day.
Data set [4] is described as follows: AUC (0 to infinity) in po dosed rat. In kind it is ADME, organism-based. As to conditions: in vivo.
Data set [5] deals with MKN-45. Nature of the data set: Induction of c-MET degradation in human MKN-45 cells assessed as residual activity at 100 nM incubated for 24 hrs by Western blot analysis (reference value: 100 %). The data set is classed as cell-based.
The nature of data set [6]: Toxicity in BALB/c nude mouse xenografted with human MKN-45 cells assessed as body weight loss at 10 mg/kg, po administered once daily for 21 days. In kind it is organism-based. Particulars: in vivo, 504 h, time 21 day.
Data set [7] can be described thus: Toxicity in BALB/c nude mouse xenografted with human MKN-45 cells assessed as effect on liver morphology at 10 mg/kg, po administered once daily for 21 days by H and E staining based analysis. The data set is classed as organism-based. Particulars: in vivo, 504 h, time 21 day.
Data set [8] in a line: Cmax in po dosed rat. The data set is classed as ADME, organism-based. Particulars: in vivo.
Data set [9] in a line: Toxicity in BALB/c nude mouse xenografted with human MKN-45 cells assessed as effect on heart morphology at 10 mg/kg, po administered once daily for 21 days by H and E staining based analysis. As to conditions: in vivo, 504 h, time 21 day. In kind it is organism-based.
Data set [10] is described as follows: Tmax in Wistar rat at 20 mg/kg, po measured after 24 hrs by UPLC-MS/MS analysis. In kind it is ADME, organism-based. As to conditions: in vivo.
Data set [11] is described as follows: Toxicity in BALB/c nude mouse xenografted with human MKN-45 cells assessed as effect on kidney morphology at 10 mg/kg, po administered once daily for 21 days by H and E staining based analysis. The data set is classed as organism-based. Particulars: in vivo, 504 h, time 21 day.
The test system of data set [12] is MKN-45. Nature of the data set: Downregulation of SLC7A1 protein level in human MKN-45 cells by MS-based quantitative proteomics analysis. In kind it is functional, cell-based.
Data set [13] concerns the target T1, von Hippel-Lindau disease tumor suppressor/Hepatocyte growth factor receptor (Homo sapiens, UniProt P08581+P40337). In words: PROTAC activity at VHL/c-MET in human MKN-45 cells assessed as induction of c-MET degradation at 6.25 to 100 nM incubated for 24 hrs by Western blot analysis. The data set is classed as cell-based. As to conditions: dose 6.25-100 nM.
Target sequence in this assay (P40337 whole entry partner): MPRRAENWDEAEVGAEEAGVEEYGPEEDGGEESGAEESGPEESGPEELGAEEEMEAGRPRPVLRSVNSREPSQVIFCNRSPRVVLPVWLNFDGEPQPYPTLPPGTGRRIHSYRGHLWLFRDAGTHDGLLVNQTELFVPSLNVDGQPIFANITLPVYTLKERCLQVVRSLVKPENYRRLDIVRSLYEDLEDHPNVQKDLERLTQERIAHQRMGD
Target sequence in this assay (P08581 25-1390 limits assumed): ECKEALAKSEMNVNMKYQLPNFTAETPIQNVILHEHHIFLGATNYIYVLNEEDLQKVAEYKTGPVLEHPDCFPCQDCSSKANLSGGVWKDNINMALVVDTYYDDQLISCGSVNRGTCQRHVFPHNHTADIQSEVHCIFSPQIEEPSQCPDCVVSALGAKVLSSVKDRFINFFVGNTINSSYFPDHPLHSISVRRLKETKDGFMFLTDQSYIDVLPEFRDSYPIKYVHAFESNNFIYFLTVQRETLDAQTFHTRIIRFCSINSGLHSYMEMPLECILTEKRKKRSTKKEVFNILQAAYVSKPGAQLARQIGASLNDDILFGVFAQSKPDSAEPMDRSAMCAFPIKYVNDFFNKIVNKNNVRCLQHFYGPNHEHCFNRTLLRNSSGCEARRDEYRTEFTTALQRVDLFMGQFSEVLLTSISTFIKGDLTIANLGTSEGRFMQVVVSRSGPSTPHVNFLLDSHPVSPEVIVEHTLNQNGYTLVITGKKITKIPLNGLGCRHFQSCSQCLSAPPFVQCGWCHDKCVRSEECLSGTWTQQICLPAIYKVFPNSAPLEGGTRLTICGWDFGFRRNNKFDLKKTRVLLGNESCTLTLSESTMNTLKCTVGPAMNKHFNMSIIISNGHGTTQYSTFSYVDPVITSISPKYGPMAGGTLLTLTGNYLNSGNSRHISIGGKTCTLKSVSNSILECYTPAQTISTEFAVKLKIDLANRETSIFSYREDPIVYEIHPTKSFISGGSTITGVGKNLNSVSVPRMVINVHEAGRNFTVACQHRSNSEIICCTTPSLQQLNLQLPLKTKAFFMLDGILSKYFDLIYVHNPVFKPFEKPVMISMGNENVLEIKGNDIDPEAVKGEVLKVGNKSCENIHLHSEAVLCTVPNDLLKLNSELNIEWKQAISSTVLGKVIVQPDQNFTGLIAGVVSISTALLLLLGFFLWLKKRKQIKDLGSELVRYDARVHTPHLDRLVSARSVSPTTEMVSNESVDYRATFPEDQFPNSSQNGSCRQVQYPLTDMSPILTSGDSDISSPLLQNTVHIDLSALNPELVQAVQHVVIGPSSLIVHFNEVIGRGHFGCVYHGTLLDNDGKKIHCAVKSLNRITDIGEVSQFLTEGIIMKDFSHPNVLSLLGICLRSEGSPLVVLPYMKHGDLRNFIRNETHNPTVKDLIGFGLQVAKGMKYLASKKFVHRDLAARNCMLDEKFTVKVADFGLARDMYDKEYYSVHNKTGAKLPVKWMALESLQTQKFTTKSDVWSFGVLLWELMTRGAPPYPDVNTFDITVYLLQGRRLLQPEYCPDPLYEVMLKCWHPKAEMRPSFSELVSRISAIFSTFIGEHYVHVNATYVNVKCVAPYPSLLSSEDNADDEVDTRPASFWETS

Data set [14] concerns MKN-45. Nature of the data set: Downregulation of KPNA2 protein level in human MKN-45 cells by MS-based quantitative proteomics analysis. The data set is classed as functional, cell-based.
The subject of data set [15] is MKN-45. In words: Antiproliferative activity against human MKN-45 cells incubated for 72 hrs by CCK8 assay. In kind it is functional, cell-based. As to conditions: MKN-45, 72 h. On the technique in general: Tetrazolium dyes change colour on reduction, which living cells bring about.
The test system of data set [16] is MKN-45. In words: Upregulation of PDCD4 protein level in human MKN-45 cells by MS-based quantitative proteomics analysis. In kind it is functional, cell-based.
Data set [17] has as its target von Hippel-Lindau disease tumor suppressor/Importin subunit alpha-1 (Homo sapiens) (UniProt P52292+P40337). Nature of the data set: PROTAC activity at VHL/KPNA2 in human MKN-45 cells assessed as induction of c-MET degradation at 6.25 to 100 nM incubated for 24 hrs by Western blot analysis. The data set is classed as cell-based. As to conditions: dose 6.25-100 nM. A general note: In western blotting, separated proteins are transferred to a membrane and probed.

Data set [18] has as its target T1, von Hippel-Lindau disease tumor suppressor/Hepatocyte growth factor receptor. In words: PROTAC activity at VHL/c-MET in human MKN-45 cells assessed as induction of c-MET degradation by measuring residual activity at 100 nM incubated for 24 hrs by Western blot analysis (reference value: 100 %). In kind it is cell-based.
Target sequence in this assay (P40337 whole entry partner): as the sequence (P40337 whole entry partner) above
Target sequence in this assay (P08581 25-1390 limits assumed): as the sequence (P08581 25-1390 limits assumed) above
For data set [19], the target named is T2, Protein cereblon/Hepatocyte growth factor receptor (Homo sapiens, UniProt P08581+Q96SW2). Nature of the data set: PROTAC activity at CRBN/c-MET in human MKN-45 cells assessed as induction of c-MET degradation incubated for 72 hrs by Western blot analysis. In kind it is cell-based.
Target sequence in this assay (P08581 whole entry): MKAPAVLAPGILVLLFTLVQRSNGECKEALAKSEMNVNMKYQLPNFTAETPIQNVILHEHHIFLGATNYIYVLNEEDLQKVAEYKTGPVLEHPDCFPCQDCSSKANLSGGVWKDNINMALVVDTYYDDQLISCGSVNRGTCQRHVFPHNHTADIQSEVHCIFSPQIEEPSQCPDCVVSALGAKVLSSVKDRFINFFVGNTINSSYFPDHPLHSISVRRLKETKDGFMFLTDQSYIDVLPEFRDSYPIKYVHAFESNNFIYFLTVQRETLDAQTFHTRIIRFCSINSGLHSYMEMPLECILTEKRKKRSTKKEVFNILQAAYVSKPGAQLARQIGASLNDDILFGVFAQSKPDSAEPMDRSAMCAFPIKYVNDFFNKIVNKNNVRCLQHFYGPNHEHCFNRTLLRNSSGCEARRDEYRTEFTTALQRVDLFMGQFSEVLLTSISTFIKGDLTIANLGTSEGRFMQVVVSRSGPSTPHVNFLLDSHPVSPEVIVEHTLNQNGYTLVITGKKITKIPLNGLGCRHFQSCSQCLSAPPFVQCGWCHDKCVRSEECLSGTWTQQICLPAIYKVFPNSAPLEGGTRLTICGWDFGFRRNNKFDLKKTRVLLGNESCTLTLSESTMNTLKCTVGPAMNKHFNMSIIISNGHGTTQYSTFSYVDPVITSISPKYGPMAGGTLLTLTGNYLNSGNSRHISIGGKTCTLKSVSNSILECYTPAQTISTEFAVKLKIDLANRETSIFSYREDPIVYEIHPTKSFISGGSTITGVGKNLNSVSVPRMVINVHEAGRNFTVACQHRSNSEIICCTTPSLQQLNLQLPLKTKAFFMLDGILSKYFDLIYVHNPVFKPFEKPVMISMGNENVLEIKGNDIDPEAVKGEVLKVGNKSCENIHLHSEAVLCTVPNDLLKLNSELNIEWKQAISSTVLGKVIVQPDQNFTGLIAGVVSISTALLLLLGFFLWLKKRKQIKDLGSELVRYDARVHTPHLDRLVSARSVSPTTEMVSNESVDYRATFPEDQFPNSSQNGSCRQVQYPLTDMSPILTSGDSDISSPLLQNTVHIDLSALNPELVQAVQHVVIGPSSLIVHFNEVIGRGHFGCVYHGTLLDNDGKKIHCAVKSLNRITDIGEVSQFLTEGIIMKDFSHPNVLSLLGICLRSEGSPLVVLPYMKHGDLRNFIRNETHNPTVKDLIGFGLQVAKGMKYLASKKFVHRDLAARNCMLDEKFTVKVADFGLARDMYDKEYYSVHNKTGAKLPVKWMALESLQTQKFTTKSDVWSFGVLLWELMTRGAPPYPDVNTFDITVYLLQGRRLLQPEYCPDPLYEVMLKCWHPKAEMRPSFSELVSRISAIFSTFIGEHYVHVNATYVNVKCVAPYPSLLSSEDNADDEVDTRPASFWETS
Target sequence in this assay (Q96SW2 whole entry): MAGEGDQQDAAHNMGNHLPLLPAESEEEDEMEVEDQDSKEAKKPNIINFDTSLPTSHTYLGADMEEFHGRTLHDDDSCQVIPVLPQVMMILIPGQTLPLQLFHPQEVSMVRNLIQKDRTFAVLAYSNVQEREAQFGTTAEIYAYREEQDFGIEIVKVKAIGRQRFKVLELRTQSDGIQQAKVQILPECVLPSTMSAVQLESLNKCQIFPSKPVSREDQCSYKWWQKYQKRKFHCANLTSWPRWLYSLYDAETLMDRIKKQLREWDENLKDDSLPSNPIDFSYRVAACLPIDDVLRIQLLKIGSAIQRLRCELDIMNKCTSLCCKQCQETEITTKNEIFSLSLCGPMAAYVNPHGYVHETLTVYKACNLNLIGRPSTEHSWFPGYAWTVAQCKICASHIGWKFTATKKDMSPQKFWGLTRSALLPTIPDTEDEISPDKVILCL
Data set [20] addresses T2, Protein cereblon/Hepatocyte growth factor receptor. In words: PROTAC activity at CRBN/c-MET in human MKN-45 cells assessed as induction of c-MET degradation at 3.125 to 50 nM by Western blot analysis. The data set is classed as cell-based. Particulars: dose 3.125-50 nM.
The subject of data set [21] is MKN-45. Nature of the data set: Downregulation of prothymosin-alpha protein abundance in human MKN-45 cells by MS-based quantitative proteomics analysis. The data set is classed as functional, cell-based.
Data set [22] concerns MKN-45. In words: Downregulation of HMGCS1 protein level in human MKN-45 cells by MS-based quantitative proteomics analysis. The data set is classed as functional, cell-based.
In data set [23] the target is T1, von Hippel-Lindau disease tumor suppressor/Hepatocyte growth factor receptor. In words: PROTAC activity at VHL/c-MET (unknown origin). In kind it is protein.
Target sequence in this assay (P08581 whole entry): as the sequence (P08581 whole entry) above
Target sequence in this assay (P40337 whole entry): as the sequence (P40337 whole entry partner) above
Another data set relates to HCC1954. In words: Antiproliferative activity against human HCC1954 cells incubated for 72 hrs by MTT assay. In kind it is functional, cell-based. Particulars: HCC1954, 72 h.

Consider `CNC(=O)c1ccc(-c2cnc3ncc(Cc4ccc5ncccc5c4)n3n2)cc1F` [CAPMATINIB], for which the Activity entry in data set [1] is “Non-toxic”; in data set [3], “Non-toxic”; with MKN-45 [5], 112%; in data set [6], “Non-toxic”; in data set [7], “Non-toxic”; in data set [9], “Non-toxic”. Besides, in data set [11], the Activity result is on record as “Non-toxic”. In addition, the half-life – broadly, how long it takes for the measured level to halve – in [2] was 4.09 h. Besides, the total exposure AUC(0-inf) (usually total exposure, with the tail of the curve extrapolated) in data set [4] stood at 10400 ng·h/mL. Moreover, the Cmax (in general, the highest concentration seen after dosing) in [8] was 3820 ng/mL. In addition, the Tmax (usually the time from dosing to the highest level) in [10] was determined as 0.5 h.

In the case of `Cc1ncsc1-c1ccc([C@H](C)NC(=O)[C@@H]2C[C@@H](O)CN2C(=O)[C@@H](NC(=O)CCCCCCCCC(=O)N2CCC(n3cc(-c4cnc(N)c(O[C@H](C)c5c(Cl)ccc(F)c5Cl)c4)cn3)CC2)C(C)(C)C)cc1`, the outcome (with MKN-45 [12]; in data set [13]; with MKN-45 [14]; with MKN-45 [16]; in data set [17]) was Active. For the same molecule, the IC50 (usually the concentration that gives 50% inhibition) with MKN-45 [15] was found to be 70.7 nM. Further, in data set [18], the Activity was 64%.

Molecule `C[C@@H](Oc1cc(-c2cnn(C3CCN(C(=O)CCCCCCCOc4cccc5c4C(=O)N(C4CCC(=O)NC4=O)C5=O)CC3)c2)cnc1N)c1c(Cl)ccc(F)c1Cl` (some centres undefined) displayed an IC50 with MKN-45 [15] of 347 nM. The DC50 in [19] is greater than 100 nM.

Turning to `CN1C(=O)CCC(N2C(=O)c3ccc(N4CCN(CC5CCN(C(=O)c6ccc(-c7cnc8ncc(Cc9ccc%10ncccc%10c9)n8n7)cc6F)CC5)CC4)cc3C2=O)C1=O` (centres undefined), the result in data set [20] was inactive. In addition, in the data set on MKN-45 [15], inhibition was half-maximal at 73.5 nM (IC50).

As to `Cc1ncsc1-c1ccc([C@H](C)NC(=O)[C@@H]2C[C@@H](O)CN2C(=O)[C@@H](NC(=O)CCCCCCCCC(=O)N2CCC(COc3cnc(-c4cccc(Cn5nc(-c6cccc(C#N)c6)ccc5=O)c4)nc3)CC2)C(C)(C)C)cc1`, the outcome with MKN-45 [21], in the data set on MKN-45 [16] and with MKN-45 [22] was Active. The 50% inhibitory concentration (IC50) in the data set with MKN-45 [15] is 102 nM. In data set [18], the Activity was determined as 50%.

Molecule `COc1cc2c(Oc3ccc(NC(=O)C4(C(=O)Nc5ccc(F)cc5)CC4)cc3)ccnc2cc1OCCCOCCCOCCC(=O)N[C@H](C(=O)N1C[C@H](O)C[C@H]1C(=O)NCc1ccc(-c2scnc2C)cc1)C(C)(C)C` yielded a DC50 in data set [23] greater than 1110 nM. The molecule further gave an IC50 in the data set on HCC1954 of 6700 nM.
